These results are taken from ChEMBL document CHEMBL5058564, “EUbOPEN Chemogenomics Library 2 (Incucyte)” (2022).

Assay type in all cases: toxicity, cell-based
For one data set, the system named is U2OS. The experiment in a line: Incucyte cell viability with U2OS. Particulars: human, 10 µM, compound concentration 10 uM.
For a further data set, the system named is HEK-293T. The experiment in a line: Incucyte cell viability with HEK293T. The conditions noted are these: human, 10 µM, compound concentration 10 uM.
For the next data set, the system named is Fibroblast. Nature of the data set: Incucyte cell viability with human fibroblast. The conditions noted are these: 10 µM, compound concentration 10 uM.
Where [1] appears, read: 0 h, replicate number 1, timepoint 0 hours.
Where [2] appears, read: 0 h, replicate number 2, timepoint 0 hours.
The mark [3] stands for this setting: 6 h, replicate number 1, timepoint 6 hours.
Where [4] appears, read: 6 h, replicate number 2, timepoint 6 hours.
The mark [5] stands for this setting: 12 h, replicate number 1, timepoint 12 hours.
[6] abbreviates: 12 h, replicate number 2, timepoint 12 hours.
The mark [7] stands for this setting: 18 h, replicate number 1, timepoint 18 hours.
The mark [8] stands for this setting: 18 h, replicate number 2, timepoint 18 hours.
Setting [9] is: 24 h, replicate number 1, timepoint 24 hours.
The mark [10] stands for this setting: 24 h, replicate number 2, timepoint 24 hours.
Note: unitless GR value; below 1 slowed growth and below 0 cell loss.

`CC[C@H](Nc1ncnc2[nH]cnc12)c1nc2cccc(F)c2c(=O)n1-c1ccccc1` [IDELALISIB]: the “Growth Rate” value with U2OS (setting [1]) was 0.06; with U2OS (setting [2]), -0.03; with U2OS (setting [3]), 0.46; with U2OS (setting [4]), 0.59; with U2OS (setting [5]), 0.4; with U2OS (setting [6]), 0.55. For the same molecule, the “Growth Rate” value is 0.44 in the data set with U2OS (setting [7]); 0.68 in the data set with U2OS (setting [8]); 0.59 in the data set on U2OS (setting [9]); 0.73 in the data set on U2OS (setting [10]); 0.2 in the data set with HEK-293T (setting [3]); 0.76 in the data set on HEK-293T (setting [4]). Further, the “Growth Rate” value in the data set on HEK-293T (setting [5]) is 0.52; with HEK-293T (setting [6]) it was 0.57; in the data set on HEK-293T (setting [7]), 0.56; in the data set with HEK-293T (setting [8]) it was 0.7; in the data set with HEK-293T (setting [9]), 0.64; in the data set on HEK-293T (setting [10]) it was 0.68. In addition, the “Growth Rate” value was -0.73 in the data set on Fibroblast (setting [3]); 0.36 in the data set with Fibroblast (setting [4]); -0.05 in the data set with Fibroblast (setting [5]); 0.48 with Fibroblast (setting [6]); -0.04 in the data set with Fibroblast (setting [7]); 0.59 in the data set on Fibroblast (setting [8]). For the same molecule, the “Growth Rate” value in the data set on Fibroblast (setting [9]) is -0.13; with Fibroblast (setting [10]) it was 0.75.
As for `COC(=O)[C@H](CCCNC(=N)N)NC(=O)CCCc1c(-c2ccccc2)[nH]c2c(F)cc(F)cc12.O=C(O)C(F)(F)F`, the “Growth Rate” value is reported as -0.03 in the data set with U2OS (setting [1]); 0.46 with U2OS (setting [3]); 0.64 in the data set with U2OS (setting [5]); 0.8 in the data set on U2OS (setting [7]); 0.87 in the data set with HEK-293T (setting [1]); 0.81 in the data set on HEK-293T (setting [2]). The “Growth Rate” value with HEK-293T (setting [3]) worked out at 0.68; in the data set on HEK-293T (setting [4]), 0.4; in the data set on HEK-293T (setting [5]), 0.53; in the data set on HEK-293T (setting [6]), 0.32; with HEK-293T (setting [7]), 0.64; in the data set on HEK-293T (setting [8]), 0.5. Further, the “Growth Rate” value in the data set with HEK-293T (setting [9]) came out at 0.66; with HEK-293T (setting [10]), 0.53; in the data set with Fibroblast (setting [1]), 0.79; with Fibroblast (setting [2]) it was 0.86; with Fibroblast (setting [4]), 0.39; in the data set on Fibroblast (setting [6]) it was 0.65. The entries for the “Growth Rate” value with Fibroblast (setting [8]) and in the data set on Fibroblast (setting [10]) were 0.38 and 0.46, respectively.
With `CCC(=O)OCC(=O)[C@@]1(OC(=O)CC)[C@@H](C)C[C@H]2[C@@H]3CCC4=CC(=O)C=C[C@]4(C)[C@@]3(Cl)[C@@H](O)C[C@@]21C` [BECLOMETHASONE DIPROPIONATE], the “Growth Rate” value in the data set on U2OS (setting [1]) is -0.25; with U2OS (setting [2]) it was 0.62; in the data set with U2OS (setting [3]), 0.73; with U2OS (setting [5]) it was 0.81; in the data set on U2OS (setting [6]), 0.85; in the data set with U2OS (setting [7]) it was 0.8. The “Growth Rate” value with U2OS (setting [8]) was 0.81; in the data set on U2OS (setting [9]) it was 0.78; in the data set with U2OS (setting [10]), 0.9; in the data set on HEK-293T (setting [1]) it was 0.14; with HEK-293T (setting [2]), -0.33; in the data set on HEK-293T (setting [3]) it was 0.91. Besides, the “Growth Rate” value in the data set on HEK-293T (setting [5]) was determined as 0.61; in the data set with HEK-293T (setting [6]), 0.8; in the data set on HEK-293T (setting [7]), 0.62; with HEK-293T (setting [8]), 0.78; in the data set on HEK-293T (setting [9]), 0.65; in the data set with HEK-293T (setting [10]) it was 0.83. In addition, the results for the “Growth Rate” value in the data set with Fibroblast (setting [1]) and in the data set on Fibroblast (setting [2]) were -0.17 and -0.56, respectively.
Consider `CN[C@@H](C)C(=O)N[C@H]1CCCC[C@H]2CC[C@@H](C(=O)N[C@@H](c3ccccc3)c3cn(CCCCc4ccc(CCCCn5cc([C@@H](NC(=O)[C@@H]6CC[C@@H]7CCCC[C@H](NC(=O)[C@H](C)NC)C(=O)N76)c6ccccc6)nn5)cc4)nn3)N2C1=O`, for which the “Growth Rate” value is given as -0.18 in the data set with U2OS (setting [1]); 0.83 with U2OS (setting [3]); 0.97 in the data set with U2OS (setting [7]); 1 in the data set on U2OS (setting [9]); 0.2 with HEK-293T (setting [1]); 0.49 with HEK-293T (setting [2]). Moreover, the “Growth Rate” value was 0.5 in the data set on HEK-293T (setting [3]); 0.74 in the data set on HEK-293T (setting [4]); 0.73 with HEK-293T (setting [5]); 0.75 in the data set on HEK-293T (setting [6]); 0.93 in the data set with HEK-293T (setting [7]); 0.8 in the data set with HEK-293T (setting [8]). In addition, the “Growth Rate” value in the data set on HEK-293T (setting [9]) was found to be 0.66; in the data set with HEK-293T (setting [10]), 0.84; with Fibroblast (setting [2]), 0.01; in the data set with Fibroblast (setting [3]), 0.17; with Fibroblast (setting [5]), 0.57; in the data set with Fibroblast (setting [6]), 0.75. Also, the entries for the “Growth Rate” value in the data set with Fibroblast (setting [8]), in the data set on Fibroblast (setting [9]) and in the data set with Fibroblast (setting [10]) were 0.88, 0.71 and 0.81, respectively.
`CSc1ccccc1N1CCN(CCCCCC(=O)NC2CCCc3ccccc32)CC1.Cl` (configuration not stated): the “Growth Rate” value is on record as -0.43 with U2OS (setting [1]); 0.92 with U2OS (setting [2]); 0.17 in the data set on U2OS (setting [3]); 0.43 with U2OS (setting [5]); 0.96 in the data set with U2OS (setting [6]); 0.53 in the data set on U2OS (setting [7]). For the same molecule, the “Growth Rate” value in the data set with U2OS (setting [8]) was 0.92; with U2OS (setting [9]), 0.76; with U2OS (setting [10]) it was 0.94; with HEK-293T (setting [3]), -0.01; with HEK-293T (setting [4]), -0.04; in the data set with HEK-293T (setting [5]), 0.07. Further, the “Growth Rate” value in the data set with HEK-293T (setting [6]) was -0.09; in the data set on HEK-293T (setting [7]) it was 0.16; with HEK-293T (setting [8]), 0.15; in the data set on HEK-293T (setting [9]) it was 0.29; in the data set on HEK-293T (setting [10]), 0.17; with Fibroblast (setting [1]), 0.06. Moreover, the “Growth Rate” value is given as 0.95 in the data set with Fibroblast (setting [4]); 0.31 in the data set on Fibroblast (setting [5]); 0.26 in the data set with Fibroblast (setting [6]); 0.05 in the data set with Fibroblast (setting [7]); 0.24 with Fibroblast (setting [8]); -0.06 with Fibroblast (setting [9]). Besides, the “Growth Rate” value in the data set with Fibroblast (setting [10]) stood at 0.23.
Consider `O=C(O)CCc1ccc(NCc2cccc(Oc3ccccc3)c2)cc1` [GW9508], for which the “Growth Rate” value with U2OS (setting [2]) turned out to be 0.8; in the data set with U2OS (setting [4]) it was 0.91; with U2OS (setting [5]), 1; in the data set on U2OS (setting [8]) it was 0.97; in the data set with HEK-293T (setting [2]) it was 0.79; in the data set with HEK-293T (setting [9]) it was 0.98. Further, the “Growth Rate” value is recorded as -0.2 in the data set on Fibroblast (setting [1]), 0.43 with Fibroblast (setting [2]) and 1 with Fibroblast (setting [5]).
For the molecule `N[C@](CC1c2ccccc2Oc2ccccc21)(C(=O)O)[C@H]1C[C@@H]1C(=O)O`, the “Growth Rate” value with U2OS (setting [2]) was 0.8; in the data set with U2OS (setting [6]) it was 0.92; in the data set with U2OS (setting [7]), 0.9; with HEK-293T (setting [1]), 0.78; in the data set on HEK-293T (setting [2]) it was -1; in the data set on HEK-293T (setting [3]) it was 0.42. The “Growth Rate” value in the data set on HEK-293T (setting [5]) stood at 0.5; in the data set on HEK-293T (setting [7]) it was 0.57; in the data set on HEK-293T (setting [9]), 0.69; in the data set with Fibroblast (setting [1]), 0.29; in the data set on Fibroblast (setting [4]), 0.73; in the data set on Fibroblast (setting [6]) it was 0.93. Besides, the “Growth Rate” value turned out to be 0.9 in the data set with Fibroblast (setting [7]), 0.82 in the data set on Fibroblast (setting [8]), 0.68 with Fibroblast (setting [9]) and 0.88 with Fibroblast (setting [10]).
Consider `CN(C)CCn1cc(S(=O)(=O)c2cccc(F)c2)c2cccnc21.Cl.Cl`, for which the “Growth Rate” value is 0.56 with U2OS (setting [3]); 0.76 with U2OS (setting [4]); 0.39 with U2OS (setting [5]); 0.98 with U2OS (setting [6]); 0.8 with U2OS (setting [7]); 0.86 with U2OS (setting [9]). For the same molecule, the “Growth Rate” value was 0.41 with HEK-293T (setting [1]); 0.35 with HEK-293T (setting [2]); 0.9 in the data set on HEK-293T (setting [4]); -0.06 with Fibroblast (setting [1]); 0.07 in the data set with Fibroblast (setting [2]); -0.17 with Fibroblast (setting [3]). The “Growth Rate” value stood at 0.86 in the data set on Fibroblast (setting [4]); 0.56 with Fibroblast (setting [5]); 0.68 in the data set with Fibroblast (setting [6]); 0.65 with Fibroblast (setting [7]); 0.64 with Fibroblast (setting [8]); 0.75 in the data set on Fibroblast (setting [9]). The “Growth Rate” value in the data set on Fibroblast (setting [10]) came out at 0.57.
Consider `N[C@@]1(C(=O)O)CO[C@H]2[C@H](C(=O)O)[C@H]21` [LY-379268], for which the “Growth Rate” value with U2OS (setting [1]) is -0.44; in the data set on U2OS (setting [2]) it was -0.79; in the data set with U2OS (setting [4]), 0.99; in the data set on U2OS (setting [8]), 0.92; with HEK-293T (setting [1]), 0.68; with HEK-293T (setting [2]), 0.79. Also, the “Growth Rate” value stood at 0.88 in the data set with HEK-293T (setting [4]), 0.44 with Fibroblast (setting [2]), 0.16 in the data set on Fibroblast (setting [4]) and 0.66 in the data set on Fibroblast (setting [6]).
For `CC(C)(C)c1ccc(S(=O)(=O)Nc2ccc(Cl)cc2C(=O)c2cc[n+]([O-])cc2)cc1` [VERCIRNON], the “Growth Rate” value in the data set with U2OS (setting [2]) is on record as -1; with U2OS (setting [3]) it was 0.94; in the data set on U2OS (setting [7]), 0.78; with HEK-293T (setting [3]) it was 0.87; with HEK-293T (setting [4]), 0.35; with HEK-293T (setting [6]), 0.73. The “Growth Rate” value in the data set on HEK-293T (setting [8]) came out at 0.91; in the data set on Fibroblast (setting [1]) it was 0.29; in the data set with Fibroblast (setting [2]), 0.25; with Fibroblast (setting [7]) it was 1; in the data set with Fibroblast (setting [9]), 0.69.
